ChEMBL document CHEMBL6087433, “Discovery of ART0380, a Potent and Selective ATR Kinase Inhibitor Undergoing Phase 2 Clinical Studies for the Treatment of Advanced or Metastatic Solid Cancers” (J Med Chem, 2024)

How the values were obtained:
[1] = biological target: T1, Serine/threonine-protein kinase mTOR (Homo sapiens, UniProt P42345)
[2] = biological target: T1, Serine/threonine-protein kinase mTOR; remark: listed apart in the source
Description: Inhibition of mTOR (unknown origin) by LANCE Ultra assay

[3] = biological target: Serine/threonine-protein kinase ATR (Homo sapiens, UniProt Q13535)
Chain of Serine/threonine-protein kinase ATR (Q13535 whole entry): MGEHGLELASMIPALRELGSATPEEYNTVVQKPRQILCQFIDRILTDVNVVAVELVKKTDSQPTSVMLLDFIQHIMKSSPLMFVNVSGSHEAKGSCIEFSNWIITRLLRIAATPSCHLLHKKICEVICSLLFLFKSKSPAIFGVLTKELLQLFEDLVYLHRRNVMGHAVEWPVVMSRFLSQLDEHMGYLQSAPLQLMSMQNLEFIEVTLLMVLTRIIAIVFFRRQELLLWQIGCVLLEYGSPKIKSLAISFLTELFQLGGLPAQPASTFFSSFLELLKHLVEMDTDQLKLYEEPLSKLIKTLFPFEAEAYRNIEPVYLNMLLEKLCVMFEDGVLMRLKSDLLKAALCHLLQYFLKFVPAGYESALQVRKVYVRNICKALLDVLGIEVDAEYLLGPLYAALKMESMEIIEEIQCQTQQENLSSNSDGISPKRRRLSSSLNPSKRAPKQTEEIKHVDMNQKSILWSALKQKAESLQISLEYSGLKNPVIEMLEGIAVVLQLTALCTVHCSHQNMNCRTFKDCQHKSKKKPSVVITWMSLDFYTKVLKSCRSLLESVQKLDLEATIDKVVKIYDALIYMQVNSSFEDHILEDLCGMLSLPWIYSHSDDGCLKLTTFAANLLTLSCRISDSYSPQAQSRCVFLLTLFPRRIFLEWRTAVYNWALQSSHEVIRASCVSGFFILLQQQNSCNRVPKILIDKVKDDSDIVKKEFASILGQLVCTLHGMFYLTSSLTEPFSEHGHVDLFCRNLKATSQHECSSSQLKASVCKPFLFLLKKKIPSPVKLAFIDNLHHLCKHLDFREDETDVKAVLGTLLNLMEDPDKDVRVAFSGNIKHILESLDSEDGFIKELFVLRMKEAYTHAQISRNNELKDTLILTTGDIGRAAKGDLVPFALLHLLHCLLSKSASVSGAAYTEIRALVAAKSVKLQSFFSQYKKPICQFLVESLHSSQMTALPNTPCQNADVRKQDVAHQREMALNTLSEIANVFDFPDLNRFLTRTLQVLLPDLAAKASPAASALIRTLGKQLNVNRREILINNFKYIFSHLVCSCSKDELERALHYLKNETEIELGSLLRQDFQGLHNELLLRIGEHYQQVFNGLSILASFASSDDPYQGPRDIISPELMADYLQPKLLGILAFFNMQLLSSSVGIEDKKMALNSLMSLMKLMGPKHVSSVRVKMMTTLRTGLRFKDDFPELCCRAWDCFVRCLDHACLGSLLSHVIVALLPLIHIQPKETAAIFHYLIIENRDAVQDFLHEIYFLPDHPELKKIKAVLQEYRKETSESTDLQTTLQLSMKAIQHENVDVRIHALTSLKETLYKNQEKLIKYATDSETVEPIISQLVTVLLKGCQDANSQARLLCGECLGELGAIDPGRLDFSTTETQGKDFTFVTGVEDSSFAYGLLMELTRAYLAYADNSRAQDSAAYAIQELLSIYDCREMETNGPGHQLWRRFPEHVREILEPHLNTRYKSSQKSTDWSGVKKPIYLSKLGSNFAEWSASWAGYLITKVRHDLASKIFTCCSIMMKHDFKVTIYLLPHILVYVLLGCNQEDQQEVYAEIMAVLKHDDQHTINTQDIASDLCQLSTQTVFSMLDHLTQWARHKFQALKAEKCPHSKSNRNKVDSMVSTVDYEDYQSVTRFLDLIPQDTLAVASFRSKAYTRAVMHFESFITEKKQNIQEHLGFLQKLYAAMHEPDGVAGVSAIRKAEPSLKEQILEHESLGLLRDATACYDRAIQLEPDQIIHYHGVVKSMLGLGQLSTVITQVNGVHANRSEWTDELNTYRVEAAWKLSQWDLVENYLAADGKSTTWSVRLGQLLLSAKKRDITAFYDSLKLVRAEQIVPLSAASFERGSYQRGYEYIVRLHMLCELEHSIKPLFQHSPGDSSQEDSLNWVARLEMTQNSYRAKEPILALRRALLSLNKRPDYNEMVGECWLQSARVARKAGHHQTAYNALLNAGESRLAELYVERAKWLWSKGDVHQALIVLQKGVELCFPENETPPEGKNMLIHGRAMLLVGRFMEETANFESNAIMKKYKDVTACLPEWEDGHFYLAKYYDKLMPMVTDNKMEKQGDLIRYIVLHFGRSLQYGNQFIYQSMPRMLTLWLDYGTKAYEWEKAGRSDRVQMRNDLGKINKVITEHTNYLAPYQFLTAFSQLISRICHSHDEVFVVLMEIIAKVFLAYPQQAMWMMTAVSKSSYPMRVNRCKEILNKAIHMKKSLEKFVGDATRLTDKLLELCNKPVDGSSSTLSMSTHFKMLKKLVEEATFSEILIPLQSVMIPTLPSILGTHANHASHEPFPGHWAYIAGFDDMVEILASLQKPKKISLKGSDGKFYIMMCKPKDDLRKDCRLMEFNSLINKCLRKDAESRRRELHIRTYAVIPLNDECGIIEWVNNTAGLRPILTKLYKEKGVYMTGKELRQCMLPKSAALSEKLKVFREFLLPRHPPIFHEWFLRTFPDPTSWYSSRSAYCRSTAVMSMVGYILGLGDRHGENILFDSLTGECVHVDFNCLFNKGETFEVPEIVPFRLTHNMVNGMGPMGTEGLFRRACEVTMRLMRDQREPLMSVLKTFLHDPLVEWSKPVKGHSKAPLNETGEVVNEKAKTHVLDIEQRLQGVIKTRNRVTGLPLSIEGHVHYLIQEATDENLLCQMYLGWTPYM

[4] = in vitro; conditions: human, human liver microsomes
[5] = biological target: CYP3A4 (Homo sapiens, UniProt P08684); assay: in vitro; conditions: human liver microsomes, probe midazolam
Chain of CYP3A4 (P08684 whole entry): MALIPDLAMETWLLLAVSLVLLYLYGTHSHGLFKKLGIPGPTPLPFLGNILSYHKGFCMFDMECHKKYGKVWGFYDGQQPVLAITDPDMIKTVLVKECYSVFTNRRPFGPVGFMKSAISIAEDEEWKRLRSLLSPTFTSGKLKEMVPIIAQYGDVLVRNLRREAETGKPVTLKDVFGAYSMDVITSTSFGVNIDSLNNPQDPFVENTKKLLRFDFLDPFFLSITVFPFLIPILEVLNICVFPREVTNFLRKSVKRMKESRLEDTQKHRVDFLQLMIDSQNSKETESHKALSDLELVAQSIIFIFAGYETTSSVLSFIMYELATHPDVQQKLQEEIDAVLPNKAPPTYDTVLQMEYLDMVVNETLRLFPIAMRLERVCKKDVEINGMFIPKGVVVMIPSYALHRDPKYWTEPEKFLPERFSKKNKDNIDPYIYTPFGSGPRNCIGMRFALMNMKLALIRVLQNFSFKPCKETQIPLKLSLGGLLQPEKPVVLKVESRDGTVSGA

Row | Compound | IC50 [1] | IC50 [2] | IC50 [3] | CLint scaled at 0.75 h, 1 µM [4] | inhibition at 10 µM [5]
1 | C[C@@H]1COCCN1c1cc(N=S(C)(C)=O)nc(-c2ccnc3[nH]ccc23)n1 | 2.4 µM | 0.419 µM | – | – | –
2 | C[C@@H]1COCCN1c1cc(N=S(C)(C)=O)nc(-c2ccnc(N)c2)c1 | > 10 µM | – | 0.875 µM | – | –
3 | COc1cc(-c2nc(N=S(C)(C)=O)cc(N3CCOC[C@H]3C)n2)cc(N)n1 | 8.26 µM | 2.21 µM | – | – | –
4 | C[C@@H]1COCCN1c1cc(N2CCCN(C)S2(=O)=O)nc(-c2ccnc3[nH]ccc23)n1 | 0.42 µM | 0.081 µM | – | – | –
5 | C[C@@H]1COCCN1c1cc(N=S(C)(=O)C2CCOCC2)nc(-c2ccnc3[nH]ccc23)n1 (mixture of isomers) | 6.36 µM | – | – | – | –
6 | C[C@@H]1COCCN1c1cc(N=S(C)(C)=O)nc(-c2ccnc(N)c2)n1 | 15.4 µM | 4.78 µM | – | – | –
7 | C[C@@H]1COCCN1c1cc(N=[S@](C)(=O)C2CC2)nc(-c2ccnc3[nH]ccc23)c1 | 9.65 µM | 2.77 µM | – | – | –
8 | C[C@@H]1COCCN1c1cc(N=S(C)(C)=O)nc(-c2ccnc3[nH]ccc23)c1 | 8.5 µM | 1.6 µM | – | – | –
9 | C[C@@H]1COCCN1c1cc(N=S(C)(=O)C2COC2)nc(-c2ccnc3[nH]ccc23)n1 (mixture of isomers) | 2.19 µM | 0.307 µM | – | – | –
10 | C[C@@H]1COCCN1c1cc(C2CCCS2(=O)=O)nc(-c2ccnc3[nH]ccc23)n1 (mixture of isomers) | 3.9 µM | 0.274 µM | – | – | –
11 | C[C@@H]1COCCN1c1cc(-c2ccnc3[nH]ccc23)nc(N=S(C)(C)=O)n1 | > 10 µM | – | – | – | –
12 | C[C@@H]1COCCN1c1cc(C2CCN(S(C)(=O)=O)CC2)nc(-c2ccnc3[nH]ccc23)n1 | 0.496 µM | 0.217 µM | – | – | –
13 | COc1cc(-c2nc(N=[S@](C)(=O)C3COC3)cc(N3CCOC[C@H]3C)n2)cc(N)n1 | 8.24 µM | 2.98 µM | – | 0.144 L/h/kg | –
14 | C[C@@H]1COCCN1c1cc(N=[S@](C)(=O)C2CC2)nc(-c2ccnc3[nH]ccc23)n1 | 2.38 µM | 0.324 µM | – | – | –
15 | C[C@@H]1COCCN1c1cc(N=[S@@](C)(=O)C2CC2)nc(-c2ccnc3[nH]ccc23)c1 | 8.2 µM | 1.19 µM | – | – | –
16 | COc1cc(-c2nc(N=[S@@](C)(=O)C3CC3)cc(N3CCOC[C@H]3C)n2)cc(N)n1 | 7 µM | 0.866 µM | – | 0.426 L/h/kg | –
17 | C[C@@H]1COCCN1c1cc(C2CCCN(S(C)(=O)=O)C2)nc(-c2ccnc3[nH]ccc23)n1 (mixture of isomers) | 1.3 µM | 0.113 µM | 0.134 µM | – | –
18 | CC[S@](C)(=O)=Nc1cc(N2CCOC[C@H]2C)nc(-c2ccnc3[nH]ccc23)n1 | 2.16 µM | 0.891 µM | – | – | –
19 | CC[S@@](C)(=O)=Nc1cc(N2CCOC[C@H]2C)nc(-c2ccnc3[nH]ccc23)n1 | 1.71 µM | 1.12 µM | – | – | –
20 | Cc1cc(-c2nc(N=S(C)(C)=O)cc(N3CCOC[C@H]3C)n2)cc(N)n1 | > 10 µM | – | – | – | –
21 | COc1cc(-c2nc(N=[S@@](C)(=O)C3COC3)cc(N3CCOC[C@H]3C)n2)cc(N)n1 | 5.25 µM | 0.421 µM | – | 0.78 L/h/kg | –
22 | C[C@@H]1COCCN1c1cc(N=[S@@](C)(=O)C2CC2)nc(-c2ccnc3[nH]ccc23)n1 | 1.66 µM | 0.165 µM | – | – | –
23 | Cc1cc2c(-c3nc(N=S(C)(C)=O)cc(N4CCOC[C@H]4C)n3)ccnc2[nH]1 | 3.34 µM | 0.502 µM | – | – | 56%
